Series [1] has as its system progesterone receptor (PR). The series can be described thus: Progesterone receptor immunohistochemistry in BG1 tumor explants. In kind it is in vivo, mice. Conditions: treatment alone vs control; BG1 tumors. The text has this: (§1) Tumor explants were resected at necropsy, fixed in 70% ethanol, embedded in paraffin, and immunostained using a primary monoclonal antibody for human progesterone receptor (PR) (NCL-PGR, Novocastra, Newcastle-upon-Tyne, UK). Staining methods included antigen-retrieval with citrate buffer (pH 6.0), biotinylated rabbit anti-mouse Fc antibody as a linking reagent, alkaline phosphatase-conjugated streptavidin as the label, and Vector Red as the chromogen (Vector Laboratories, Burlingame, Calif.). Cell staining was quantified by a computer-assisted counting technique, using a grid filter to select cells for counting (Darvill et al., supra; Burow et al., supra). At least two microscopic fields were randomly selected for each tumor and 200 cells were counted at 40× magnification. Numbers of positively stained cells were expressed as a percentage of the total number examined. All measurements were made blinded to treatment group.
(§2) Progesterone receptor expression is an estrogen-sensitive marker driven by ER transactivation. In this study we used PR immunostaining to evaluate (a) whether glyceollin treatment alone was stimulating the ER as an agonist and (b) whether glyceollin treatment with estradiol (E2) was antagonizing ER activation.

In series [2] the test system is MCF-7 breast carcinoma cells. The series can be described thus: MCF-7 xenograft tumor growth in ovariectomized nu/nu mice. In kind it is in vivo. Conditions: estradiol pellet alone; day 20; mean±SEM. Here is the method: (§3) Cages, bedding, food, and water were autoclaved before use. […] Tumor size was measured every two days using calipers.
(§4) The in vivo effects of glyceollins on tumor growth formation were determined. MCF-7 or BG-1 cells were implanted into the mammary fat pad of female ovariectomized nude mice. Mice were divided into two groups: those animals implanted s.c. with estradiol pellets and those without. Tumors were implanted using Matrigel (reduced factor) to enhance tumor incidence and promote tumor growth in the presence and absence of estrogen. Glyceollins (or vehicle) were injected daily for 20 days. Measurable tumors were observed on Day 8 for both MCF-7 cells (FIG. 3) and BG-1 cells (FIG. 4). […] Estrogen stimulated the formation of rapidly growing tumors in both MCF-7 and BG-1 implanted mice, reaching a maximal size of 3074±843 mm^3 in MCF-7 and 3836±756 mm^3 in BG-1 implanted animals by day 20 of treatment. In the negative control animals (without estrogen pellets or glyceollins), tumor incidence occurred on […] and tumors grew slowly with a maximal size of 899±24 mm^3 for MCF-7 cells and 976±42 mm^3 for BG-1 cells on day 20 of treatment. […]
(§5) Data Analysis: Data for MCF-7N and BG-1 tumor size were analyzed separately using repeated measures two-way ANOVA with treatment and time as independent factors (SigmaStat 3.1). […]

Series [3] has as its system Mouse uteri. In words: Uterine weight and morphology (uterotrophic assay) in nu/nu mice.
In series [4] the test system is BG-1 ovarian carcinoma cells. The series can be described thus: BG-1 xenograft tumor growth in ovariectomized nu/nu mice. Particulars: estradiol pellet alone; day 20; mean±SEM. In kind it is in vivo. The protocol:
as §3, §4, §5

Series [5] deals with progesterone receptor (PR). In words: Progesterone receptor immunohistochemistry in MCF-7 tumor explants. It counts as in vivo, mice. Conditions: treatment alone vs control; MCF-7 tumors.
Excerpt: as §1, §2

The test system of series [6] is MCF-7 breast carcinoma cell. The series can be described thus: In vitro MCF-7 colony (clonogenicity) assay. In kind it is cell-based, human. Particulars: estrogen treatment alone. The protocol: The MCF-7N cell variant is a subclone of MCF-7 cells from the American Type Culture Collection (Manassas, Va.) that was generously provided by Louise Nutter (University of Minnesota, Minneapolis, Minn.) and has been previously described (Graham et al., supra). The BG-1 cell line has been previously described. MCF-7 and BG-1 cells were grown in Dulbecco's modified minimal medium (pH 7.4; Life Technologies, Inc., Grand Island, N.Y.) supplemented with 10% fetal bovine serum (Hyclone, Salt Lake City, Utah). For studies with estrogen, the cells were cultured in medium supplemented with 5% charcoal-stripped fetal bovine serum. The cells were incubated at 37° C. in an atmosphere of 5% CO2 and air.
MCF-7 cells are plated at 10^3/well in 6 well Cluster dishes, and incubated overnight. Cells are cultured and treated in DMEM without phenol red; phenol red interacts with estrogen receptors. Treatment and control plates were incubated at 37° C., 5% CO2. Plates were observed periodically. When colonies were of a size of 50 cells or more, at Day 14, cells were fixed with glutaraldehyde for 30 min at 37° C., washed, and stained with Crystal violet (0.4%) for 1 hr. Colonies were counted manually. This method is used to study the effects of chemical or physical agents on cell survival and proliferation; 1 colony=1 cell. […]

As to `C[C@]12CC[C@@H]3c4ccc(O)cc4CC[C@H]3[C@@H]1CC[C@@H]2O` [Glyceollin E2, 17β-estradiol], the PR expression result in series [1] and in series [5] was “significantly increased PR expression” in each case. Further, the “tumor size (maximal)” value came to 3074±843 mm^3 in series [2] and 3836±756 mm^3 in series [4]. Besides, the uterine histology result in series [3] (H&E-stained uteri, treatment alone) was “markedly larger with epithelial pseudostratification, stromal edema and hyperplasia, and increased numbers of endometrial glands”. For the same compound, the “Uterine area, uterine diameter, and epithelial height” value in series [3] (treatment alone vs control) is “significantly increased”. Besides, the colony formation result in series [6] was “enhanced colony formation”.

With `CC/C(=C(\c1ccccc1)c1ccc(OCCN(C)C)cc1)c1ccccc1` [tamoxifen], the “uterine fixed weight over control” value in series [3] (treatment alone, 20 days) is “increase uterine fixed weight over control”.

(Values after patent US8323706B2, “Antiestrogenic glyceollins suppress human breast and ovarian carcinoma proliferation and tumorigenesis” (The United States of America, as represented by the …, priority 2005, dated 2012).)
